Reference: ChEMBL document CHEMBL4507277

Assays:
[1] = biological target: Death-associated protein kinase 3 (Homo sapiens) (UniProt O43293); settings: Compound concentration 1000.0 nM
[2] = biological target: Calcium-dependent protein kinase 1 (Plasmodium falciparum) (UniProt P62344); settings: Compound concentration 1000.0 nM
[3] = biological target: Serine/threonine-protein kinase Sgk1 (Homo sapiens) (UniProt O00141); settings: Compound concentration 1000.0 nM
[4] = tested on: Mast/stem cell growth factor receptor Kit (Homo sapiens), P10721 [L576P]; settings: Compound concentration 1000.0 nM
[5] = tested on: Epidermal growth factor receptor (Homo sapiens), P00533 [G719S]; settings: Compound concentration 1000.0 nM
[6] = biological target: Serine/threonine-protein kinase Nek4 (Homo sapiens) (UniProt P51957); settings: Compound concentration 1000.0 nM
[7] = biological target: Serine/threonine-protein kinase Nek10 (Homo sapiens) (UniProt Q6ZWH5); settings: Compound concentration 1000.0 nM
[8] = biological target: Proto-oncogene tyrosine-protein kinase receptor Ret (Homo sapiens) (UniProt P07949); settings: Compound concentration 1000.0 nM
[9] = biological target: Aurora kinase C (Homo sapiens) (UniProt Q9UQB9); settings: Compound concentration 1000.0 nM
[10] = biological target: Mitogen-activated protein kinase kinase kinase kinase 5 (Homo sapiens) (UniProt Q9Y4K4); settings: Compound concentration 1000.0 nM
[11] = biological target: Tyrosine-protein kinase JAK3 (Homo sapiens) (UniProt P52333); settings: Compound concentration 1000.0 nM
[12] = tested on: Mast/stem cell growth factor receptor Kit (Homo sapiens), P10721 [A829P]; settings: Compound concentration 1000.0 nM
[13] = biological target: Dual specificity protein kinase CLK1 (Homo sapiens) (UniProt P49759); settings: Compound concentration 1000.0 nM
[14] = biological target: Serine/threonine-protein kinase 32B (Homo sapiens) (UniProt Q9NY57); settings: Compound concentration 1000.0 nM
[15] = tested on: Hepatocyte growth factor receptor (Homo sapiens), P08581 [Y1235D]; settings: Compound concentration 1000.0 nM
[16] = biological target: Mitogen-activated protein kinase 12 (Homo sapiens) (UniProt P53778); settings: Compound concentration 1000.0 nM
[17] = biological target: 5'-AMP-activated protein kinase catalytic subunit alpha-1 (Homo sapiens) (UniProt Q13131); settings: Compound concentration 1000.0 nM
[18] = biological target: Serine/threonine-protein kinase STK11 (Homo sapiens) (UniProt Q15831); settings: Compound concentration 1000.0 nM
[19] = biological target: Discoidin domain-containing receptor 2 (Homo sapiens) (UniProt Q16832); settings: Compound concentration 1000.0 nM
[20] = biological target: Tyrosine-protein kinase Mer (Homo sapiens) (UniProt Q12866); settings: Compound concentration 1000.0 nM
[21] = biological target: Protein kinase C iota type (Homo sapiens) (UniProt P41743); settings: Compound concentration 1000.0 nM
[22] = biological target: Insulin receptor-related protein (Homo sapiens) (UniProt P14616); settings: Compound concentration 1000.0 nM
[23] = biological target: Calcium/calmodulin-dependent protein kinase type 1G (Homo sapiens) (UniProt Q96NX5); settings: Compound concentration 1000.0 nM
[24] = biological target: Calcium/calmodulin-dependent protein kinase type II subunit beta (Homo sapiens) (UniProt Q13554); settings: Compound concentration 1000.0 nM
[25] = biological target: Beta-adrenergic receptor kinase 1 (Homo sapiens) (UniProt P25098); settings: Compound concentration 1000.0 nM
[26] = biological target: Serine/threonine-protein kinase RIO3 (Homo sapiens) (UniProt O14730); settings: Compound concentration 1000.0 nM
[27] = biological target: Mitogen-activated protein kinase kinase kinase 10 (Homo sapiens) (UniProt Q02779); settings: Compound concentration 1000.0 nM
[28] = biological target: NT-3 growth factor receptor (Homo sapiens) (UniProt Q16288); settings: Compound concentration 1000.0 nM
[29] = biological target: Proto-oncogene tyrosine-protein kinase Src (Homo sapiens) (UniProt P12931); settings: Compound concentration 1000.0 nM
[30] = biological target: RAC-alpha serine/threonine-protein kinase (Homo sapiens) (UniProt P31749); settings: Compound concentration 1000.0 nM
[31] = tested on: Tyrosine-protein kinase ABL1 (Homo sapiens), P00519 [Q252H]; settings: Compound concentration 1000.0 nM
[32] = biological target: Mu-type opioid receptor (Homo sapiens) (UniProt P35372); settings: Compound concentration 10.0 uM
[33] = biological target: Serine/threonine-protein kinase ULK1 (Homo sapiens) (UniProt O75385); settings: Compound concentration 1000.0 nM
[34] = biological target: Ribosomal protein S6 kinase alpha-2 (Homo sapiens) (UniProt Q15349); settings: Compound concentration 1000.0 nM
[35] = biological target: Dual specificity mitogen-activated protein kinase kinase 6 (Homo sapiens) (UniProt P52564); settings: Compound concentration 1000.0 nM
[36] = biological target: Tyrosine-protein kinase Fes/Fps (Homo sapiens) (UniProt P07332); settings: Compound concentration 1000.0 nM
[37] = biological target: RAC-beta serine/threonine-protein kinase (Homo sapiens) (UniProt P31751); settings: Compound concentration 1000.0 nM
[38] = biological target: Wee1-like protein kinase 2 (Homo sapiens) (UniProt P0C1S8); settings: Compound concentration 1000.0 nM
[39] = biological target: Mitogen-activated protein kinase kinase kinase 2 (Homo sapiens) (UniProt Q9Y2U5); settings: Compound concentration 1000.0 nM
[40] = biological target: Vascular endothelial growth factor receptor 1 (Homo sapiens) (UniProt P17948); settings: Compound concentration 1000.0 nM
[41] = biological target: Serine/threonine-protein kinase B-raf (Homo sapiens) (UniProt P15056); settings: Compound concentration 1000.0 nM
[42] = biological target: Macrophage-stimulating protein receptor (Homo sapiens) (UniProt Q04912); settings: Compound concentration 1000.0 nM
[43] = biological target: Cyclin-dependent kinase 2 (Homo sapiens) (UniProt P24941); settings: Compound concentration 1000.0 nM
[44] = biological target: Casein kinase II subunit alpha (Homo sapiens) (UniProt P68400); settings: Compound concentration 1000.0 nM
[45] = biological target: Serine/threonine-protein kinase tousled-like 1 (Homo sapiens) (UniProt Q9UKI8); settings: Compound concentration 1000.0 nM

Protein kinase C iota type (Homo sapiens), sequence (P41743 whole entry): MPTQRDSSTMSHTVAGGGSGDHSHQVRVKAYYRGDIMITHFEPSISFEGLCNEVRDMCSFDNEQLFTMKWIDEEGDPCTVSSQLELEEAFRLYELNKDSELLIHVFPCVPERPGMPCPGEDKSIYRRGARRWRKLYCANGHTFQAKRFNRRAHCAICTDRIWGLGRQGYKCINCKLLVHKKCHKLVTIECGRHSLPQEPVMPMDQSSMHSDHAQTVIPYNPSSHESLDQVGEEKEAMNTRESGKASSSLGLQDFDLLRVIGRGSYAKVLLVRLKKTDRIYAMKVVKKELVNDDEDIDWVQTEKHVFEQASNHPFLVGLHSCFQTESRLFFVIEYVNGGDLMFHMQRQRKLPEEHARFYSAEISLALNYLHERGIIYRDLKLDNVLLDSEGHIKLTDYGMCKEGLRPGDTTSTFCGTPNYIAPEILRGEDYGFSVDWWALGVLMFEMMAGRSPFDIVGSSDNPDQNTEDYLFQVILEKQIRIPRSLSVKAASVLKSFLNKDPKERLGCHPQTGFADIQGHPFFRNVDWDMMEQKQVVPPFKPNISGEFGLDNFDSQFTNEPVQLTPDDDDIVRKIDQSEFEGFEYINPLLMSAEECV
Serine/threonine-protein kinase RIO3 (Homo sapiens), sequence (O14730 whole entry): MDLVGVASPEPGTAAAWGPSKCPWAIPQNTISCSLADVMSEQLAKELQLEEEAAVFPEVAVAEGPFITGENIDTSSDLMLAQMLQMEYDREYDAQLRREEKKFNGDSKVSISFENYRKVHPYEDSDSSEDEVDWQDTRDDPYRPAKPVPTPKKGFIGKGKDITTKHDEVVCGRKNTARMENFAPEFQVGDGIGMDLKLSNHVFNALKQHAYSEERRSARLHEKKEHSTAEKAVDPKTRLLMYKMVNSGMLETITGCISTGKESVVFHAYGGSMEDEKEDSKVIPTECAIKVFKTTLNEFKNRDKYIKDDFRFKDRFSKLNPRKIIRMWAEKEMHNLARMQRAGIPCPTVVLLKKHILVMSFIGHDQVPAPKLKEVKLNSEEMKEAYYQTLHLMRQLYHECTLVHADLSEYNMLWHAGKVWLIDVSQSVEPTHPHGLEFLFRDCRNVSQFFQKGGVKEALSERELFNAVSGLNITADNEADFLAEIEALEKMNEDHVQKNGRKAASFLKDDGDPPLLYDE
Serine/threonine-protein kinase Nek4 (Homo sapiens), sequence (P51957 whole entry, looked up): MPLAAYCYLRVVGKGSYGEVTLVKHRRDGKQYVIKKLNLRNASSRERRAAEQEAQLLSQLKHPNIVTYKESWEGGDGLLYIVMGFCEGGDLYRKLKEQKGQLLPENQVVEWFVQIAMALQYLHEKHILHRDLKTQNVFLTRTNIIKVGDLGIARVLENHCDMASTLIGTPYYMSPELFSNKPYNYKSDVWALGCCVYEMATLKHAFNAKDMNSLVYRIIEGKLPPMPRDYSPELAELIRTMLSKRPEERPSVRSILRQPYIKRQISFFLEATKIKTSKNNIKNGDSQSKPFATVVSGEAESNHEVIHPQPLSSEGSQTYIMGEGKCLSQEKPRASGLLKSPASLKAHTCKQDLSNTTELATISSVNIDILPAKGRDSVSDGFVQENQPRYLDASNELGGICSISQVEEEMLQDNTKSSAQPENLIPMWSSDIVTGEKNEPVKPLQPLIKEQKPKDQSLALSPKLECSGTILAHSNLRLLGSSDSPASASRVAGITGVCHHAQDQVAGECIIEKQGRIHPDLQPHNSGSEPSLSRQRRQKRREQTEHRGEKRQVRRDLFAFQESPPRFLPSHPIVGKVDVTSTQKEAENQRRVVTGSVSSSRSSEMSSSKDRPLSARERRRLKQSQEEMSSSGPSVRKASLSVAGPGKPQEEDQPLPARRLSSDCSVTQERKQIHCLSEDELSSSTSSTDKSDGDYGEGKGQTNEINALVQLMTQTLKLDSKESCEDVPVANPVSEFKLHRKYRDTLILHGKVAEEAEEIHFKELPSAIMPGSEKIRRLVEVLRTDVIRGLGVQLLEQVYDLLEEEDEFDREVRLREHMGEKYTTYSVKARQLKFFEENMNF
Wee1-like protein kinase 2 (Homo sapiens), sequence (P0C1S8 whole entry, looked up): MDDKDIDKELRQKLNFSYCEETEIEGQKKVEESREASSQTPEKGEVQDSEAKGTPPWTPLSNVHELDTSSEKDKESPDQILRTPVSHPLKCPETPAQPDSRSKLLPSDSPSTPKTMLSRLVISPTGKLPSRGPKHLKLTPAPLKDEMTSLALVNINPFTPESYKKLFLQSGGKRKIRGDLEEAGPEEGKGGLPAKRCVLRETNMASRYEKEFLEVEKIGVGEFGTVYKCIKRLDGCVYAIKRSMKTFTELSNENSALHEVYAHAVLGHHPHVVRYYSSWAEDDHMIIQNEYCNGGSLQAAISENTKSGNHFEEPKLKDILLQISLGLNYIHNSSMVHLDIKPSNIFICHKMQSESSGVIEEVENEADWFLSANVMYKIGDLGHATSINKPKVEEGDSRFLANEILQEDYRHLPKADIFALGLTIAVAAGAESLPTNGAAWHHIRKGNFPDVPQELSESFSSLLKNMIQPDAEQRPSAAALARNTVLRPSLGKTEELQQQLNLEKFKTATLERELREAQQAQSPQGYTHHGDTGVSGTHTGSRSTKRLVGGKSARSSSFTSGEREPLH
Tyrosine-protein kinase Mer (Homo sapiens), sequence (Q12866 whole entry): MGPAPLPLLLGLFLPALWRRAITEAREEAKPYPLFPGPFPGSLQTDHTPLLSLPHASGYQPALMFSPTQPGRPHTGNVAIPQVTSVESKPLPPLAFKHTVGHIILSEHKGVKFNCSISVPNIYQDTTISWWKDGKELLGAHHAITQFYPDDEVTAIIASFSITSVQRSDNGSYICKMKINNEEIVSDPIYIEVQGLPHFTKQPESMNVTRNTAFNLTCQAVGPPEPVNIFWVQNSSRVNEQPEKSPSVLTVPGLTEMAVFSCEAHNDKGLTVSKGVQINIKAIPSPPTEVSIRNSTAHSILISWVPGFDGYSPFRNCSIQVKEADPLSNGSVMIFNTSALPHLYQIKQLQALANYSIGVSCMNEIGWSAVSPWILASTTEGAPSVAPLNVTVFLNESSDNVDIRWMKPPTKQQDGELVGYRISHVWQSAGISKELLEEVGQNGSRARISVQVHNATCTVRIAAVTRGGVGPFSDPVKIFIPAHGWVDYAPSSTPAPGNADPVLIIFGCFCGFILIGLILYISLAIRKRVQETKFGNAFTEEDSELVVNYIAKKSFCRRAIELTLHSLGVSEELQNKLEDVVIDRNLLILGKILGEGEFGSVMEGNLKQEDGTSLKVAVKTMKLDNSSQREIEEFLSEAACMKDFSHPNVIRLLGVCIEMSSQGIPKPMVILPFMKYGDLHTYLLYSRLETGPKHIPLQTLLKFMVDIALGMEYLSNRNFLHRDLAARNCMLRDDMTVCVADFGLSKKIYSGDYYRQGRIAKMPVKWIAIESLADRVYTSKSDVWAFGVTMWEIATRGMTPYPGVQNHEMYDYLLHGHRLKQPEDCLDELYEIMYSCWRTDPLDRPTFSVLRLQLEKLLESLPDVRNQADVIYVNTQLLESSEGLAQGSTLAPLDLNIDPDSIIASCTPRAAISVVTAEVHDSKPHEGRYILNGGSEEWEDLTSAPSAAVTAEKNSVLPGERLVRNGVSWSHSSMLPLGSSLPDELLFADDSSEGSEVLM
RAC-alpha serine/threonine-protein kinase (Homo sapiens), sequence (P31749 whole entry): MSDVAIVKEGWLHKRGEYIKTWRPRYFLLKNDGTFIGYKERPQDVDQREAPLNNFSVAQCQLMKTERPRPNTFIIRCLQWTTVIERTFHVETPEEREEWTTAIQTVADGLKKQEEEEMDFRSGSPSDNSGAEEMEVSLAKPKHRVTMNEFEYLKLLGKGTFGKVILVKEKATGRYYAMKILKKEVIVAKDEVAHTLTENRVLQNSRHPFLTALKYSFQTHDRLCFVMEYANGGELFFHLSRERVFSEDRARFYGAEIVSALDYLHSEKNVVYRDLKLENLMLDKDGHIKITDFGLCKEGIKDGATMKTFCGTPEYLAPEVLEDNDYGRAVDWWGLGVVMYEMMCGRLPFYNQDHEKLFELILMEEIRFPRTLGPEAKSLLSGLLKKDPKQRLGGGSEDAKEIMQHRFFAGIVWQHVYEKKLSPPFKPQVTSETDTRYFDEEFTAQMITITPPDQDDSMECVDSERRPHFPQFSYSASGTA
Mitogen-activated protein kinase 12 (Homo sapiens), sequence (P53778 whole entry): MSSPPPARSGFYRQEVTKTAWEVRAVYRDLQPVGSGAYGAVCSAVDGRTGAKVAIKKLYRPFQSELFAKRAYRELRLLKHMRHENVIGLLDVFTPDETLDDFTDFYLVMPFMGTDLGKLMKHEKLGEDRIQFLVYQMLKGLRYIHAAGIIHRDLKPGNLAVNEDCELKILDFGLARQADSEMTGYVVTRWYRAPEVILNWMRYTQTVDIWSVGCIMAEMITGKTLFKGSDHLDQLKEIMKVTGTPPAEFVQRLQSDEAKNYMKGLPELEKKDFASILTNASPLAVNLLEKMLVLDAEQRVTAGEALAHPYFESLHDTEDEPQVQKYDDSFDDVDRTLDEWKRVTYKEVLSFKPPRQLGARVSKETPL
RAC-beta serine/threonine-protein kinase (Homo sapiens), sequence (P31751 whole entry): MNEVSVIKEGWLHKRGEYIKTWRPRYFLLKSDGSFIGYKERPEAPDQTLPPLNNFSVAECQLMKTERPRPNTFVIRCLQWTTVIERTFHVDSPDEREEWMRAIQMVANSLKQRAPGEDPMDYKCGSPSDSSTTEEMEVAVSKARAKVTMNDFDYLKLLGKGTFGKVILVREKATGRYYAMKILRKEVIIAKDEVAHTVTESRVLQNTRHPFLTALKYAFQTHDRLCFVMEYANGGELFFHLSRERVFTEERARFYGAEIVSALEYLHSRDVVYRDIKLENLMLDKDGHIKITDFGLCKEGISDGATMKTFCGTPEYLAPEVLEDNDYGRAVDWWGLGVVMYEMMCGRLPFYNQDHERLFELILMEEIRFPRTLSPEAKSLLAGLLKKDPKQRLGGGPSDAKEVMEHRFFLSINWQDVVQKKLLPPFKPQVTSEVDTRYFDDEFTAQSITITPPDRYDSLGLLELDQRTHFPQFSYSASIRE

CCS(=O)(=O)c1cc2cc(C[C@](O)(CC(C)(C)c3ccc(F)cc3C(N)=O)C(F)(F)F)[nH]c2cn1
inactive: residual activity [1] 97% | residual activity [2] 100% | residual activity [3] 100% | residual activity [4] 83% | residual activity [5] 100% | residual activity [6] 85% | residual activity [7] 100% | residual activity [8] 93% | residual activity [9] 91% | residual activity [10] 100% | residual activity [11] 72% | residual activity [12] 89% | residual activity [13] 99% | residual activity [14] 94% | residual activity [15] 100% | residual activity [16] 100% | residual activity [17] 100% | residual activity [18] 100% | residual activity [19] 88% | residual activity [20] 100% | residual activity [21] 100% | residual activity [22] 100% | residual activity [23] 100% | residual activity [24] 97% | residual activity [25] 84% | residual activity [26] 91% | residual activity [27] 100% | residual activity [28] 94% | residual activity [29] 100% | residual activity [30] 100% | residual activity [31] 100% | inhibition [32] 7.51% | residual activity [33] 100% | residual activity [34] 81% | residual activity [35] 80% | residual activity [36] 100% | residual activity [37] 94% | residual activity [38] 100% | residual activity [39] 100% | residual activity [40] 81% | residual activity [41] 100% | residual activity [42] 100% | residual activity [43] 94% | residual activity [44] 100% | residual activity [45] 75%

CCS(=O)(=O)c1cc2cc(C[C@@](O)(CC(C)(C)c3ccc(F)cc3C(N)=O)C(F)(F)F)[nH]c2cn1
inactive: residual activity [1] 100% | residual activity [2] 99% | residual activity [3] 79% | residual activity [4] 100% | residual activity [5] 100% | residual activity [6] 91% | residual activity [7] 88% | residual activity [8] 100% | residual activity [9] 81% | residual activity [10] 99% | residual activity [11] 76% | residual activity [12] 73% | residual activity [13] 100% | residual activity [14] 100% | residual activity [15] 100% | residual activity [16] 100% | residual activity [17] 100% | residual activity [18] 100% | residual activity [19] 100% | residual activity [20] 100% | residual activity [21] 100% | residual activity [22] 64% | residual activity [23] 100% | residual activity [24] 100% | residual activity [25] 50% | residual activity [26] 74% | residual activity [27] 65% | residual activity [28] 82% | residual activity [29] 100% | residual activity [30] 86% | residual activity [31] 92% | inhibition [32] 7.98% | residual activity [33] 100% | residual activity [35] 84% | residual activity [36] 100% | residual activity [37] 93% | residual activity [38] 95% | residual activity [39] 100% | residual activity [40] 67% | residual activity [41] 69% | residual activity [42] 85% | residual activity [43] 96% | residual activity [44] 75%
active: residual activity [34] 0% | residual activity [45] 0%
